Experiments:
[1] = test system: peripheral white blood cells; test: Number of peripheral white blood cells in normal mice; assay type: in vivo; details: for Number of white blood cells: day 15
Protocol: Toxicity was evaluated in cancerous animals by the body weight decrease. We further characterized the nature of the protective effect provided by the cartilage extract by assessing an hematology parameter namely the number of peripheral white blood cells. Normal mice were injected (l.P.) with CDDP (3 and 4 mg/kg) on days 1, 4, 7, 10 and 13 of the experimental protocol. The cartilage extract was administered, orally, at doses of 75, 150 and 500 mg/kg/day. Animals were sacrificed on day 15 and blood samples were collected for cell count using an automated blood cell analyzer. Groups consisted of animals receiving CDDP alone, the cartilage extract alone, both in combination or saline as negative control. […] Values obtained from individual groups that have received cartilage extract were pooled to increase statistical power. Mean white blood cell counts were plotted according to treatment group regimen (FIG. 3). A linear trend indicated a clear monotonic trend (r^2=0.9126) for as decrease in cell counts according to treatment regimen stringency. This observation is in agreement with a protective effect of the cartilage extract relative to the peripheral white blood cell population reduced during CDDP administration.

[2] = Toxic side effects by body weights of LLC mice; assay type: in vivo, C57B1/6 mice; details: CDDP alone 4 mg/kg; after fifteen days from inoculation
Protocol: LLC cells were resuspended in sterile PBS (10^6 cells/0.2 ml) and implanted in C57B1/6 mice. After a period of 11 days, primary tumors reached an average volume of 1.0 cm^3 and were surgically resected. After surgery, mice were randomized into groups of 15 animals and control article (saline) and cartilage extract were administered on a daily basis via oral gavage at the dose levels indicated for a period of 15 days. At day 16-post-surgery, animals were sacrificed, the lungs fixed in 10% […] and the number of lung metastases counted. Animals were always kept under controlled environment: temperature 22° C., humidity 40% to 50%, light/dark cycle: 12 hours. They were fed and given water ad libitum. The toxic side effects were evaluated by measuring the body weights. The results are illustrated in FIG. 2. During the first week of treatment, the body weights increased in all groups. Treatment started on Day 12 of the protocol. The decrease in body weight observed between the second and the third time point of the graph results from the surgery (on day 11) necessary to remove the primary LLC tumor mass. After fifteen days from inoculation, it was observed that CDDP alone was very toxic since a decrease of about 16% of body weight occurred in comparison to the non-treated group.

[3] = test system: LLC lung metastasis; test: Lewis lung carcinoma model (LLC), number of lung metastases; assay type: in vivo, C57B1/6 mice; details: for Percent reduction from control (lung metastases): first experiment
Protocol: We have verified the anti-tumor efficacy and the protective effect of cartilage extract by testing a combination of diverse concentrations of cartilage liquid extract alone and in combination with cisplatin (CDDP), in the Lewis lung carcinoma model (LLC). LLC cells were resuspended in sterile PBS (10^6 cells/0.2 ml) and implanted in C57B1/6 mice. After a period of 11 days, primary tumors reached an average volume of 1.0 cm^3 and were surgically resected. After surgery, mice were randomized into groups of 15 animals and control article (saline) and cartilage extract were administered on a daily basis via oral gavage at the dose levels indicated for a period of 15 days. At day 16-post-surgery, animals were sacrificed, the lungs fixed in 10% […] and the number of lung metastases counted. Animals were always kept under controlled environment: temperature 22° C., humidity 40% to 50%, light/dark cycle: 12 hours. They were fed and given water ad libitum. In a first experiment, five injections of CDDP were given intraperitoneally every three days (1, 2 and 3 mg/Kg). Cartilage extract was given per as daily (31, 125 and 500 mg/Kg). Saline was given as a control. In a second independent experiment, CDDP was given at a dose of 4 mg/kg. Cartilage extract was given at doses 75, 150 and 500 mg/kg. Saline was given again as a control. Administration of CDDP alone reduced the number of metastases by about 71%.

Number of white blood cells ([1]; CDDP 3 mg/kg i.p. days 1, 4, 7, 10, 13): 3.4e+09 L⁻¹ | Number of white blood cells ([1]; CDDP 4 mg/kg i.p. days 1, 4, 7, 10, 13): 3.3e+09 L⁻¹
Structure (SMILES): [NH2][Pt]([NH2])([Cl])[Cl] [CDDP, cisplatin]
effect on number of white blood cells ([1]; CDDP 3 and 4 mg/kg alone): significant decrease of the number of white blood cells | decrease of body weight in comparison to the non-treated group [2]: about 16% | Percent reduction from control (lung metastases) ([3]; CDDP 1 mg/kg i.p., alone): 19% | Percent reduction from control (lung metastases) ([3]; CDDP 2 mg/kg i.p., alone): 35% | Percent reduction from control (lung metastases) ([3]; CDDP 3 mg/kg i.p. every three days x5, alone): 54% | reduction of the number of metastases ([3]; CDDP alone 4 mg/kg, second independent experiment): about 71% | decrease in metastases ([3]; CDDP alone at 5 mg/kg (data not shown), stated equivalent to the 500 mg/kg/day + 3 mg combination): ~85%

Reference: patent US6855338B2, “Anti-tumor therapies comprising a combination of a cartilage extract and an anti-neoplastic agent providing high efficacy and low toxic side effects” (priority 1997, dated 2005)
